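Compound exposure: 48 hours, 5 concentrations, 96-well plates. GI50 is the concentration that inhibits growth by half.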 Calls of active or inactive are those of the source. Rule as the data show it: active = GI50 up to about 1.1 µM and inactive = higher.
Experiments:
Assay in all cases: NCI-60 cell line screen, 48 h
[1] = test system: M14
[2] = test system: BT-549
[3] = test system: 786-0
[4] = test system: OVCAR-8
[5] = test system: HOP-62
[6] = test system: HCC 2998
[7] = test system: NCI-H460
[8] = test system: T47D
[9] = test system: EKVX
[10] = test system: HT-29
[11] = test system: NCI-H226
[12] = test system: MDA-N
[13] = test system: DU-145
[14] = test system: NCI-H522
[15] = test system: SK-MEL-2
[16] = test system: OVCAR-4
[17] = test system: NCI-H23
[18] = test system: OVCAR-5
[19] = test system: SNB-19

N#CC12CC3=C(N=C1NC1=C(CCc4ccccc41)C2)c1ccccc1CC3 (stereo not given)
GI50 [1]: 2.76 µM (inactive)
GI50 [2]: 9.29 µM (inactive)
GI50 [3]: 3.42 µM (inactive)
GI50 [4]: 3.24 µM (inactive)
GI50 [5]: 5.37 µM (inactive)
GI50 [6]: 1.74 µM (inactive)
GI50 [7]: 3.06 µM (inactive)
GI50 [8]: 6.67 µM (inactive)
GI50 [9]: 4.67 µM (inactive)
GI50 [10]: 0.533 µM (active)
GI50 [11]: 3.73 µM (inactive)
GI50 [12]: 0.258 µM (active)
GI50 [13]: 3.97 µM (inactive)
GI50 [14]: 1.23 µM (inactive)
GI50 [15]: 4.39 µM (inactive)
GI50 [16]: 7.55 µM (inactive)
GI50 [17]: 3.18 µM (inactive)
GI50 [18]: 4.22 µM (inactive)
GI50 [19]: 3.95 µM (inactive)

CC(=O)NN(c1ccccc1)C1CCN(c2ccccc2)N1C(C)=O (stereo not given)
GI50 [1]: > 10 µM (inactive)
GI50 [2]: > 10 µM (inactive)
GI50 [3]: > 10 µM (inactive)
GI50 [4]: > 10 µM (inactive)
GI50 [5]: > 10 µM (inactive)
GI50 [6]: 3.82 µM (inactive)
GI50 [7]: > 10 µM (inactive)
GI50 [8]: > 10 µM (inactive)
GI50 [9]: > 10 µM (inactive)
GI50 [10]: 5.74 µM (inactive)
GI50 [11]: > 10 µM (inactive)
GI50 [12]: 9.16 µM (inactive)
GI50 [13]: > 10 µM (inactive)
GI50 [14]: 7.53 µM (inactive)
GI50 [15]: > 10 µM (inactive)
GI50 [16]: > 10 µM (inactive)
GI50 [17]: > 10 µM (inactive)
GI50 [18]: > 10 µM (inactive)
GI50 [19]: > 10 µM (inactive)

c1cncc(CC2(c3cc4ccccc4[nH]3)OCCO2)c1
GI50 [2]: 66.1 µM (inactive)
GI50 [3]: > 100 µM (inactive)
GI50 [4]: > 100 µM (inactive)
GI50 [6]: > 100 µM (inactive)
GI50 [7]: > 100 µM (inactive)
GI50 [8]: > 100 µM (inactive)
GI50 [10]: > 100 µM (inactive)
GI50 [11]: > 100 µM (inactive)
GI50 [12]: > 100 µM (inactive)
GI50 [13]: > 100 µM (inactive)
GI50 [14]: > 100 µM (inactive)
GI50 [15]: > 100 µM (inactive)
GI50 [16]: > 100 µM (inactive)
GI50 [17]: > 100 µM (inactive)
GI50 [19]: > 100 µM (inactive)

COc1cc(/C=C2\C(=O)N(c3cccc(Cl)c3)C(c3ccccc3)S2(=O)=O)cc(OC)c1OC (stereo not given)
GI50 [1]: 31.3 µM (inactive)
GI50 [2]: > 100 µM (inactive)
GI50 [3]: 42.2 µM (inactive)
GI50 [4]: 86.7 µM (inactive)
GI50 [5]: 85.7 µM (inactive)
GI50 [6]: > 100 µM (inactive)
GI50 [7]: > 100 µM (inactive)
GI50 [8]: 41.3 µM (inactive)
GI50 [9]: > 100 µM (inactive)
GI50 [10]: > 100 µM (inactive)
GI50 [11]: 89.7 µM (inactive)
GI50 [12]: 20.8 µM (inactive)
GI50 [13]: > 100 µM (inactive)
GI50 [14]: 17.8 µM (inactive)
GI50 [15]: > 100 µM (inactive)
GI50 [16]: 85.5 µM (inactive)
GI50 [17]: 66.2 µM (inactive)
GI50 [18]: > 100 µM (inactive)
GI50 [19]: 23.7 µM (inactive)

COc1cc2c(cc1OC)C(=O)N(c1ccc(O)cc1)C2
GI50 [1]: > 100 µM (inactive)
GI50 [2]: > 100 µM (inactive)
GI50 [3]: > 100 µM (inactive)
GI50 [4]: > 100 µM (inactive)
GI50 [5]: > 100 µM (inactive)
GI50 [6]: > 100 µM (inactive)
GI50 [7]: > 100 µM (inactive)
GI50 [8]: > 100 µM (inactive)
GI50 [9]: > 100 µM (inactive)
GI50 [10]: > 100 µM (inactive)
GI50 [11]: > 100 µM (inactive)
GI50 [12]: > 100 µM (inactive)
GI50 [13]: > 100 µM (inactive)
GI50 [14]: > 100 µM (inactive)
GI50 [15]: > 100 µM (inactive)
GI50 [16]: > 100 µM (inactive)
GI50 [17]: > 100 µM (inactive)
GI50 [18]: > 100 µM (inactive)
GI50 [19]: > 100 µM (inactive)

Cc1ccc(NC(=O)C23CC4CC(CC(C4)C2)C3)c(C(=O)NNC(=O)c2ccc(Cl)cc2)c1
GI50 [1]: 31.8 µM (inactive)
GI50 [2]: 35.9 µM (inactive)
GI50 [3]: 20.2 µM (inactive)
GI50 [4]: 30.2 µM (inactive)
GI50 [5]: 18.4 µM (inactive)
GI50 [6]: 12.9 µM (inactive)
GI50 [7]: 22 µM (inactive)
GI50 [8]: 18.3 µM (inactive)
GI50 [9]: 18.5 µM (inactive)
GI50 [10]: 23.7 µM (inactive)
GI50 [11]: 17 µM (inactive)
GI50 [12]: 20.2 µM (inactive)
GI50 [13]: 27.6 µM (inactive)
GI50 [14]: 12 µM (inactive)
GI50 [16]: 16.7 µM (inactive)
GI50 [17]: 12.9 µM (inactive)
GI50 [18]: 17.3 µM (inactive)
GI50 [19]: 1.41 µM (inactive)

COc1cccc(-n2c(N)c(-c3nc4cc(C(F)(F)F)ccc4s3)c3ccc([N+](=O)[O-])cc3c2=O)c1
GI50 [1]: > 100 µM (inactive)
GI50 [2]: > 100 µM (inactive)
GI50 [3]: > 100 µM (inactive)
GI50 [5]: > 100 µM (inactive)
GI50 [6]: > 100 µM (inactive)
GI50 [7]: > 100 µM (inactive)
GI50 [8]: > 100 µM (inactive)
GI50 [9]: > 100 µM (inactive)
GI50 [10]: > 100 µM (inactive)
GI50 [11]: > 100 µM (inactive)
GI50 [12]: > 100 µM (inactive)
GI50 [13]: > 100 µM (inactive)
GI50 [14]: > 100 µM (inactive)
GI50 [15]: > 100 µM (inactive)
GI50 [16]: > 100 µM (inactive)
GI50 [17]: > 100 µM (inactive)
GI50 [18]: > 100 µM (inactive)
GI50 [19]: > 100 µM (inactive)

CC(=O)Oc1ccc2cc(Oc3ccc(Cl)c(Cl)c3)c(=O)oc2c1
GI50 [1]: 38.5 µM (inactive)
GI50 [2]: 12.6 µM (inactive)
GI50 [3]: 19.5 µM (inactive)
GI50 [4]: 32 µM (inactive)
GI50 [5]: 25.2 µM (inactive)
GI50 [6]: 19.5 µM (inactive)
GI50 [7]: 24 µM (inactive)
GI50 [8]: 11.5 µM (inactive)
GI50 [9]: 24 µM (inactive)
GI50 [10]: 35.5 µM (inactive)
GI50 [11]: 26.6 µM (inactive)
GI50 [12]: 25.9 µM (inactive)
GI50 [13]: 39.3 µM (inactive)
GI50 [14]: 21.2 µM (inactive)
GI50 [16]: 41.8 µM (inactive)
GI50 [17]: 35.6 µM (inactive)
GI50 [18]: 72.6 µM (inactive)
GI50 [19]: 27.9 µM (inactive)
